“And” between values parts separate entries of the source, which are not always exact repeats. Equal values may be shown once.
Key:
[1] = tested on: SHP1, PTP1B, TC-PTP, LYP, PRL1, PRL2; assay: Western blot of other PTPs in HEK293 cells (degrader selectivity); format: cell-based, human; conditions: 1 μM P9, 16 h
Method: (§1) HEK293, SKBR3, U2OS, MCF7 and A549 cells were grown in DMEM supplemented with 10% FBS, penicillin (50 units/mL), and streptomycin (50 μg/mL) in a 37 °C incubator containing 5% CO2. KYSE-520 and H358 cells were grown in RPMI-1640 supplemented with 10% FBS, penicillin (50 units/mL), and streptomycin (50 μg/mL) in a 37 °C incubator containing 5% CO2. For western-blot analysis, protein samples were separated by SDS-PAGE, transferred to nitrocellulose membranes, and incubated overnight at 4 °C with corresponding primary antibodies diluted in 5% BSA in phosphate-buffered saline Tween (PBST). SuperSignal™ West Pico PLUS (PI34580; Thermo Scientific) was used to visualize the antibodies in the bioanalytical imaging system (Azure Biosystems c500). Anti-p-ERK1/2 (T202/Y204) (4370), and anti-ERK1/2 (4696) were purchased from Cell Signaling Technology. Anti-GAPDH (sc-365062), anti-SHP2 (sc-7384), anti-SHP1 (sc-7289), and anti-Actin (sc-8432) antibodies were purchased from Santa Cruz. Anti-PTP1B (ab244207) antibody was purchased from Abcam. For colony formation assay, a total of approximately 200–500 cells were seeded to each well in a 12-well plate. The wells were then treated with DMSO, compound P9 and 3 at 37 °C for 3 weeks, gently washed, and stained with crystal violet.

[2] = tested on: KYSE-520, SKBR3, U2OS, MCF7, H358 and A549 cells; assay: Colony formation assay; format: cell-based; conditions: 3 weeks treatment
Method: as §1

[3] = tested on: other PTPs; assay: PTP inhibition assay, panel of representative PTP family members; format: biochemical; conditions: up to 10 µM P9 concentration
Method: PTP activity was assayed using p-nitrophenyl phosphate (pNPP) as a substrate in DMG buffer (50 mM DMG, pH 7.0, 1 mM EDTA, 150 mM NaCl, 2 mM DTT, 0.1 mg/mL BSA) at 25 °C. The assays were performed in 96-well plates. To determine the IC50 values, the reaction was initiated by the addition of enzyme (final concentration = 10 nM) to a reaction mixture (0.2 mL) containing pNPP (at a final concentration close to the Kms of tested enzymes, in specific: 0.05 mM for CDC-14A; 0.5 mM for FAP-1; 2 mM for TC-PTP, PTP1B, STEP, LWM-PTP, and PTPα; 3 mM for SHP1; 4 mM for Laforin; 5 mM for LYP, CD45, and VHR; 6 mM for PTP-MEG2 and HePTP) with various concentrations of inhibitors. The reaction rate was measured using a SpectraMax Plus 384 Microplate Spectrophotometer (Molecular Devices, San Jose, CA, USA). Data were fitted using the SigmaPlot Enzyme Kinetics Module (Systat Software, Inc., San Jose, CA, USA).

[4] = Pharmacokinetics in mice, single IP injection; format: in vivo; conditions: for Plasma concentration / concentration at 0.5 h / concentration at 1 h / concentration at 2 h / concentration at 3 h / concentration at 6 h: individual animals; for concentration at 0.5 h / concentration at 1 h / concentration at 2 h / concentration at 3 h / concentration at 6 h / Cmax / half-life / AUC / Tmax: plasma; for concentration at 0.5 h / concentration at 1 h / concentration at 2 h / concentration at 3 h / concentration at 6 h: intraperitoneal; for Cmax / half-life / AUC / Tmax / t1/2: mice
Method: Experiments on mice were carried out in accordance with the regulations of the Institutional Animal Care and Use Committees at Purdue University. All mice were housed under pathogen-free conditions in the animal facility and received autoclaved water and food. Eight to ten weeks-old Nude mice were used in the study.
For pharmacokinetic studies, mice were administered a single dose of P9 at 25 or 50 mg/kg via IP injection. Blood samples were collected through the tail vein at indicated time points after injection. Isoflurane was used as an anesthetic. All blood samples were centrifuged at 1500 g for 5 min, and plasma was separated and stored at –80 °C until analysis by a validated method based on reversed-phase liquid chromatography coupled to mass-spectrometric detection (LC/MS) using a previously published procedure.

[5] = Nude, mouse, ip, 25 mg/kg, single IP 25 mg/kg
[6] = Nude, mouse, ip, 50 mg/kg, single IP 50 mg/kg
[7] = Nude, mouse, single IP 25 mg/kg
[8] = Nude, mouse, single IP 50 mg/kg

With `Cc1ncsc1-c1ccc([C@H](C)NC(=O)[C@@H]2C[C@@H](O)CN2C(=O)[C@@H](NC(=O)CCCCCCCCCN2CCN(C(=O)CCCCCC3(CN)CCN(c4cnc(Sc5cccc(Cl)c5Cl)c(N)n4)CC3)CC2)C(C)(C)C)cc1` [P9, (2S,4R)-1-((S)-2-(10-(4-(6-(1-(6-amino-5-((2,3-dichlorophenyl)thio)pyrazin-2-yl)-4-(aminomethyl)piperidin-4-yl)hexanoyl)piperazin-1-yl)decanamido)-3,3-dimethylbutanoyl)-4-hydroxy-N-((S)-1-(4-(4-methylthiazol-5-yl)phenyl)ethyl)pyrrolidine-2-carboxamide] the “protein level of other PTPs” value [1] was “none of the other PTPs including SHP1, PTP1B, TC-PTP, LYP, PRL1, and PRL2, were affected”, the “growth inhibition in colony formation assay compared with compound 3” value [2] was “improved efficacy in inhibiting the growth of these cancer cells” and the “inhibition towards other PTPs” value [3] was “no significant inhibition”. For the same molecule, the Plasma concentration ([4]; 25 mg/kg IP, 0.5 h) was 520 nM and 750 nM, the Plasma concentration ([4]; 25 mg/kg IP, 1 h) was 1200 nM and 1320 nM and the Plasma concentration ([4]; 25 mg/kg IP, 2 h) was 1090 nM and 930 nM. The Plasma concentration ([4]; 25 mg/kg IP, 3 h) was 620 nM and 590 nM, the Plasma concentration ([4]; 25 mg/kg IP, 6 h) was 410 nM and 390 nM and the Plasma concentration ([4]; 25 mg/kg IP, 24 h) was 130 nM and 180 nM and 60 nM. For the same molecule, the Plasma concentration ([4]; 50 mg/kg IP, 0.5 h) was 1820 nM and 1960 nM, the Plasma concentration ([4]; 50 mg/kg IP, 1 h) was 2700 nM and 2550 nM and the Plasma concentration ([4]; 50 mg/kg IP, 2 h) was 1760 nM and 1700 nM. The Plasma concentration ([4]; 50 mg/kg IP, 3 h) was 1220 nM and 1150 nM, the Plasma concentration ([4]; 50 mg/kg IP, 6 h) was 700 nM and 680 nM and the Plasma concentration ([4]; 50 mg/kg IP, 24 h) was 160 nM and 240 nM and 100 nM. For the same molecule, the concentration at 0.5 h ([4]; Nude, mouse, 25 mg/kg, 25 mg/kg IP, 0.5 h) was 560 nM, the concentration at 1 h ([4]; Nude, mouse, 25 mg/kg, 25 mg/kg IP, 1 h) was 1020 nM and the concentration at 2 h ([4]; Nude, mouse, 25 mg/kg, 25 mg/kg IP, 2 h) was 920 nM. For the same molecule, the concentration at 3 h ([4]; Nude, mouse, 25 mg/kg, 25 mg/kg IP, 3 h) was 550 nM, the concentration at 6 h ([4]; Nude, mouse, 25 mg/kg, 25 mg/kg IP, 6 h) was 360 nM and the concentration at 0.5 h ([4]; Nude, mouse, 50 mg/kg, 50 mg/kg IP, 0.5 h) was 1760 nM. For the same molecule, the concentration at 1 h ([4]; Nude, mouse, 50 mg/kg, 50 mg/kg IP, 1 h) was 2510 nM, the concentration at 2 h ([4]; Nude, mouse, 50 mg/kg, 50 mg/kg IP, 2 h) was 1660 nM and the concentration at 3 h ([4]; Nude, mouse, 50 mg/kg, 50 mg/kg IP, 3 h) was 1030 nM. The concentration at 6 h ([4]; Nude, mouse, 50 mg/kg, 50 mg/kg IP, 6 h) was 550 nM, the Cmax [4, 5] was 1180 ± 130 nM and the half-life [4, 5] was 3.71 ± 0.72 h. For the same molecule, the Cmax [4, 6] was 2510 ± 190 nM, the half-life [4, 6] was 3.01 ± 0.48 h and the AUC [4, 7] was 8.51 ± 0.6 µM·h. The Tmax [4, 7] was 2 h, the AUC [4, 8] was 15.1 ± 0.99 µM·h and the Tmax [4, 8] was 2 h. It also gave a Cmax ([4]; single IP 25 mg/kg, 25 mg/kg) of 1200 ± 100 nM, a t1/2 ([4]; single IP 25 mg/kg, 25 mg/kg) of 3.7 ± 0.7 h and a Cmax ([4]; single IP 50 mg/kg, 50 mg/kg) of 2500 ± 200 nM. The t1/2 ([4]; single IP 50 mg/kg, 50 mg/kg) was 3.0 ± 0.5 h.
